Consider one compound from article PMC12257544, “Fluorescent Isostere (Fluostere) of the Carboxylate: Design of hDHODH Fluorescent Inhibitors as Proof of Concept” (Journal of Medicinal Chemistry, 2025).

The test system of one data set is THP-1 cells. The data set can be described thus: Co-localization competition assay with Bay2402234 (Manders coefficient). The format is cell-based, human. The conditions noted are these: 10 μM each, 3 h, Manders coefficient, Welch's t test p = 0.0024. Here is the method: Colocalization between hDHODH inhibitors and mitochondria was quantified using Manders coefficient (Figure D).
THP-1 cells were incubated for 3 h with hDHODHi 11a and Bay240223410 at 10 μM, either alone or in combination. After incubation, the cells were washed and stained with Red-MitoTracker CMXRos (Thermo Fisher, Carlsbad, CA, USA) at a concentration of 100 nM for 30 min at 37 °C. Cells were imaged with a Leica TCS SP8 confocal system (Leica Microsystems) equipped with 4 excitation lasers (405 Diode, Argon, DPSS561, HeNe633). Images were acquired with a HCX PL APO 63×/1.4 NA oil-immersion objective with a resolution of 81 nm × 81 nm and were processed and analyzed with ImageJ software (Rasband, W.S., U.S. National Institutes of Health, Bethesda, […]). In particular, colocalization was analyzed with JACoP plugin and Manders’ coefficient was calculated

Another data set has as its target hDHODH (Homo sapiens, UniProt Q02127). The data set can be described thus: Fluorescence emission of the compound in the presence of recombinant hDHODH. The conditions noted are these: compound 1 μM, hDHODH 31.5 to 504 nM, TRIS pH 8. The format is binding. Here is the method: In particular, we observed an increase in fluorescence intensity in correlation with the growing amount of protein, as shown in Figure .
UV–Vis absorption spectra were recorded on a Cary60 spectrometer. Photoemission spectra, luminescence lifetimes, and quantum yields were acquired with a HORIBA Jobin Yvon IBH Fluorolog-TCSPC spectrofluorometer equipped with a Quanta-φ integrating sphere. […] Emission-decay data were collected in 2048 channels to 10000 counts in the peak channel. IRF was measures using colloidal silica suspension in H2O to scatter light. Data were analyzed with the software DAS6 (TCSPC decay-analysis software) using a nonlinear least-squares method to fit of the decay to a sum of exponentials. The value of χ^2, residuals and the autocorrelation function (Durbin-Watson parameter) were used to determine the quality of the fit. […] After 5 min incubation UV–Vis absorption spectra were recorded on a Cary60 spectrophotometer and photoemission spectra were acquired with a HORIBA Jobin Yvon IBH Fluorolog-TCSPC spectrofluorometer with excitation λ of 366 nm and maximum of emission at 500 nm; a.u. data were analyzed with GraphPad Prism using One Site – Specific Binding equation.

For the next data set, the system named is hCoV-OC43. Nature of the data set: Antiviral focus-forming reduction assay (FFRA) in HCT-8 cells. The format is cell-based, human coronavirus OC43. On the procedure: After virus adsorption (2 h at 33 °C), the infected cell cultures were incubated in medium containing the corresponding compounds plus 1% (w/v) methylcellulose (Merck) and 1% (v/v) FBS. […] Viral foci were microscopically counted, and the mean plaque counts for each drug concentration was converted in viral titer (PFU/mL).

The subject of a further data set is THP1 cells. The data set can be described thus: Annexin V apoptosis assay. The format is cell-based, human. On the procedure:
After 3 days of culture, the apoptotic assay was performed using the Annexin V-FITC Kit (Miltenyi Biotec, Italy), according to the manufacturer's instructions. The apoptotic cells were acquired on […] and analyzed using Kaluza software version 2.1 (Beckman Coulter, Fullerton, CA).

Another data set has as its target hDHODH enzyme GST-tagged (Homo sapiens, UniProt Q02127). The data set can be described thus: hDHODH inhibition assay (DCIP reduction).
Data set [1] deals with HCT-8 cells. The data set can be described thus: Cytotoxicity assay (CellTiter-Glo). The following applies: uninfected HCT-8 cells, 72 h. The format is cell-based, human. On the procedure: (§1) After 72 h of incubation, the number of viable cells was determined using the CellTiter-Glo Luminescent assay (Promega, Milan, Italy). The cytotoxicity of the tested compounds was expressed as cytotoxic concentration (CC50).
In general terms: In ATP-based viability assays light output follows the ATP content of the culture.

Data set [2] is described as follows: Cytotoxicity assay (CellTiter-Glo). The format is cell-based, human. The conditions noted are these: human, HCT-8 cells (uninfected), uninfected HCT-8 cells. Here is the method: as §1
The next data set has as its system A549 cells. Nature of the data set: Cell viability assay (CellTiter-Glo). The format is cell-based. The following applies: Homo sapiens, A549, 72 h; 3 days of culture; read-out: Viability EC50 A549 (C.L. 95 %). On the procedure: (§2) After 3 days of culture, the percentage of live cells was determined using the CellTiter-Glo Luminescent assay (Promega, Milan, Italy), following the manufacturer’s instructions.

The next data set relates to K562 cells. Nature of the data set: Cell viability assay (CellTiter-Glo). The format is cell-based. The following applies: Homo sapiens, K562, 72 h; 3 days of culture; read-out: Viability EC50 K562 (C.L. 95 %). Here is the method:
as §2

A short description of data set [3]: Cytotoxicity assay (CellTiter-Glo). The format is cell-based. The following applies: human, MRC-5 cells; 72 h incubation; read-out: MRC-5 CC50 (C.L. 95 %). On the procedure: as §1
Data set [4] relates to HCT-8 cells. Nature of the data set: Confocal Red-MitoTracker co-localization. The format is cell-based, human. The following applies: 10 μM, 24 h. On the procedure:
Co-localization experiments were performed to examine whether compound 11a may reach the cellular compartment where hDHODH is located. For this, a specific mitochondrial stain marker in the two cell lines in which the biological activities of 11a were observed, namely THP-1 and HCT-8 cells, was used. The compound was therefore incubated with THP-1 cells (Figure ) or HTC-8 cells (Figure ) at 37 °C for 24 h. Then, cells were stained with Red-MitoTracker (a specific fluorescent probe for mitochondrial targeting) for 30 min at 37 °C.
For fluorescence analysis, 10 μM of target compounds were incubated with THP-1 for 24 h. After washing the cells with a PBS buffer solution, they were analyzed under confocal microscopy imaging technique using the appropriate laser to excite the molecule. For the colocalization experiments, HCT-8 cells (55,000 cells/well) were plated on μ-Slide 8 well high glass bottom (IBIDI, Gräfelfing, Germany) and treated for 24 h with 10 μM of 11a at 37 °C. Then, cells were stained with MitoTracker Red CMXRos (ThermoFischer, Carlsbad, CA, USA) (1:4000) for 30′ at 37 °C and after washing with PBS buffer solution, cells were visualized with a Leica TCS SP5 multiphoton-inverted confocal microscope equipped with LAS AF matrix software. Live cells were imaged using an HCX PL APO 63×/1.4 NA oil immersion objective. […]

Read-outs that look alike come from different tables or passages of the source.

hDHODH, sequence (Q02127 whole entry): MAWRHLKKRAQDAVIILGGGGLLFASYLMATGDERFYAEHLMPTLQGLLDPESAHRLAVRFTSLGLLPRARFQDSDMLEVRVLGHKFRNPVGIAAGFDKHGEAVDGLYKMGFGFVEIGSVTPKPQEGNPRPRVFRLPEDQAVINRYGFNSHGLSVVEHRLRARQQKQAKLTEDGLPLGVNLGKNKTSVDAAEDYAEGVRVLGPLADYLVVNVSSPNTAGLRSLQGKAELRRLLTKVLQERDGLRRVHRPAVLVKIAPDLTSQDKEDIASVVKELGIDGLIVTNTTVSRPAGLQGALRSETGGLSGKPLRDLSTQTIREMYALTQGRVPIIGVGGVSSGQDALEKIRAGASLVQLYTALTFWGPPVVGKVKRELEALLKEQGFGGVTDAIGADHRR
hDHODH enzyme GST-tagged, sequence (Q02127 whole entry): as above
Description for hDHODH enzyme GST-tagged: The enzyme (around 60 nM) was preincubated for 5 min at 37 °C in Tris-buffer solution (pH 8.0) with coenzyme Q10 (100 μM), tested compounds at different concentrations (final DMSO concentration 0.1% v/v), and DCIP (50 μM). The reaction was initiated by addition of DHO (500 μM) and the reduction was monitored at λ = 650 nm. […] Values are means ± SE of three independent experiments.

For the compound `Oc1nn2ccccc2c1/C=C/c1c(F)c(F)c(-c2ccccc2)c(F)c1F` [Compound 11a, (E)-3-(2-(2,3,5,6-Tetrafluoro-[1,1’-biphenyl]-4-yl)vinyl)pyrazolo[1,5-a]pyridin-2-ol], in the data set with THP-1 cells, the “colocalization signal with the mitochondria in the presence of Bay2402234” value was “decreased slightly but statistically significantly”. Also, the “fluorescence in the presence of the recombinant protein” value on hDHODH is on record as “restoration of fluorescence”. Further, the EC50 in the data set with hCoV-OC43 (Betacoronavirus 1, OC43, HCT-8, 72 h, read-out: EC50, concentration inhibiting 50% of virus replication, hCoV-OC43, FFRA in HCT-8 cells, 72 h p.i., full treatment) stood at 2.3 ± 0.5 µM; in the data set on THP1 cells (Homo sapiens, THP-1, 72 h, 3 days of culture, Annexin V-FITC, read-out: Apoptosis EC50 THP1 (C.L. 95 %)), 0.693 µM; with A549 cells it was 0.423 µM; with K562 cells, 0.114 µM. The EC90 in the data set on hCoV-OC43 (Betacoronavirus 1, OC43, HCT-8, 72 h, read-out: EC90, concentration inhibiting 90% of virus replication) came to 23.3 ± 0.4 µM. Also, in the data set with hCoV-OC43 (HCT-8 CC50 / hCoV-OC43 EC50), the “SI, Selectivity Index (ratio of CC50 to EC50)” value was determined as 131. In the data set on THP1 cells (lower than MEDS433, THP1 apoptosis), the “antileukemic activity relative to MEDS433” value is reported as approximately 10 fold. In the data set with THP1 cells (uridine 100 μM, compound 1 µM, THP-1, 3 days), the “pro-apoptotic activity after adding exogenous uridine” value is recorded as “completely reversed”. Besides, it took 0.17 µM to reach half-maximal inhibition against hDHODH enzyme GST-tagged (IC50). It took 301 ± 8.97 µM to reach half-maximal cytotoxicity in the data set with HCT-8 cells [1] (CC50). In addition, the CC50 (usually the concentration that lowers cell viability or growth by half) at 72 h in data set [2] was determined as 301 ± 9 µM; in [3], 7 µM. Also, in the data set on HCT-8 cells [4], the “co-localization with Red-MitoTracker” value is listed as “localize into mitochondria”.
